{"source": "patent US20240124456A1", "about": "“AZA-ERGOLINE DERIVATIVE AND PREPARATION METHOD THEREFOR AND APPLICATION THEREOF” (SHANGHAITECH UNIVERSITY, priority 2021, published 2024)", "type_in_all_cases": "in vivo", "key": {"[1]": {"tested_on": "C57B6 male mice", "assay": "Open field athletic ability test, MK801-induced hyperkinesia", "details": "for 45 minutes moving distance: n=8", "procedure": "Experimental method: The experimental animals were C57B6 male mice, n=8 in each group. This model used C57B6 mice as experimental animals. The behavioral representation of hyperkinesia in open field environment in mice was induced by acute injection of NMDA antagonist MK801 and modeled to test the inhibitory effect of different compounds on hyperkinesia phenotype induced by MK801. All mouse behavior experiments were carried out during the light period of the mice, and the whole experiment was recorded by the camera and automatic tracking and data statistics were carried out by behavioral tracking software. The compound was administered by intraperitoneal injection. Immediately after the injection, the mice entered the open field and their movement trajectories began to record. After 30 minutes, the mice received 0.2 mg/kg of MK801 by intraperitoneal injection and returned to the open field immediately after administration and the movement trajectories were further recorded for 120 min. The accumulative moving distance of the mice was counted at a data sampling point every five minutes. Data statistics were carried out using Student-t-test, p<0.05 was *, p<0.01 was **, p<0.001 was ***, p<0.0001 was ****. The total moving distance of the mice in 0-45 minutes under the combined action of different doses of (−)-I-10 and MK801 (0.2 mg/kg) is shown in Table 7."}, "[2]": {"tested_on": "C57B6 male mice", "assay": "Tail suspension experiment after 5 h restraint (depression-like behavior)", "details": "for Immobility time, tail suspension experiment: restraint for five hours", "procedure": "(§1) The experimental animals were C57B6 male mice, n=8 in each group. Firstly, the C57B6 mice were induced to develop depression-related behavioral representations by restraining the mice for 5 hours, and then the effects of the compounds on their “depression-like” behaviors were determined by tail suspension and forced swimming experiments. The specific experimental procedure was as follows. First, the mice were restrained using a mouse fixator for tail vein injection. During the restraint process, all behavioral abilities of the mice were restricted under the condition of ensuring minimal pain to the mice. The mice were administered intraperitoneally once before and after restraint, respectively. After the restraint, the mice returned to the cage to recover for 30 minutes. After the 30 minutes, the mice in different groups were subjected to tail suspension or forced swimming to detect their “depression-like” behavior, respectively.\nTail suspension experiment: the tip of the tail of the mouse was fixed on the suspension rod of the iron stand by adhesive tape, and the mouse remained in the hanging position for 6 minutes. The first 2 minutes was the adaptation period, and no data collection was performed, and the time of the intermittent immobility behavior of the mouse was recorded in the next 4 minutes. The duration of this immobility state was used to measure the degree of behavioral despair in the mouse. Data statistics were carried out using Student-t-test, p<0.05 was *, p<0.01 was **, p<0.001 was ***, p<0.0001 was ****."}, "[3]": {"tested_on": "C57B6 male mice", "assay": "Forced swimming experiment after 5 h restraint (depression-like behavior)", "details": "restraint for five hours", "procedure": "as §1\nForced swimming experiment: the mouse was placed in a 5 L glass beaker filled with water, the water surface height was 15 cm, and the mouse needed to swim continuously in the beaker for 6 minutes. The first two minutes was the adaptation period and no data collection was performed. The time of the intermittent immobility behavior of the mouse was recorded in the next four minutes, and the immobility behavior of the mouse was defined as: the mouse float passively on the surface of the water without movement, with only small local movements required to maintain afloat. The duration of this immobility state was used to measure the degree of behavioral despair in the mouse. Data statistics were carried out using Student-t-test, p<0.05 was *, p<0.01 was **, p<0.001 was ***, p<0.0001 was ****. The results of statistical data of restrained and unrestrained mouse tail suspension experiment and forced swimming experiment are shown in Table 8."}, "[4]": {"tested_on": "C57B6 male mice", "assay": "Morris water maze, MK801 recognition impairment model", "details": "for Platform exploration time / Times of crossing platform area: MK801 model; for Times of crossing platform area: probe trial", "procedure": "The experimental animals were C57B6 male mice, n=8 in each group. Firstly, mice were intraperitoneally injected with 0.2 mg/kg of MK801 twice a day for ten consecutive days to establish a recognition impairment model, and control mice were intraperitoneally injected with normal saline containing the same amount of DMSO, and then the mice were subjected to the Morris water maze test.\nExperimental setup: Experiments were conducted in a blue circular water reservoir with a diameter of 130 cm. The reservoir was filled with pure water about 30 cm deep. The reservoir was divided into 4 fan-shaped areas by a cross, and the escape platform (6 cm in diameter) was located in the center of one of the fan-shaped areas and was hidden 0.5 cm below the water surface. The position where the mice entered the water was fixed at the edges of the other three fan-shaped areas. The position where the mice entered the water was basically consistent with the straight-line distance of the platform.\nAcquisition phase: 30 minutes before the start of the experiment, the mice were administered intraperitoneally. After the experiment started, the mouse was put into the water with its head facing the reservoir wall, and the placement position was randomly selected from one of the three starting positions in the east, west, and south, and the underwater hidden platform was located in the north quadrant. The time taken by the mouse to find the underwater platform was recorded. […] Then the above steps were repeated 2 times at another starting position. Each animal was trained three times a day for 5 consecutive days.\nProbe trial: on the second day after the last acquisition phase, the platform was removed and a 60-second probe trial began. The animal was placed in the water from the opposite side of the original platform quadrant. The number of times the animal crossed the original platform location was recorded as a detection index of spatial memory. Data statistics were carried out using Student-t-test, p<0.05 was *, p<0.01 was **, p<0.001 was ***, p<0.0001 was ****."}, "[5]": {"tested_on": "C57B6 male mice", "assay": "Freezing behavior test", "details": "10 mg/kg", "procedure": "Experimental method: The experimental animals were C57B6 male mice, n=8 in each group. Mice were first injected with different compounds, and after a certain period of time (30 min or 60 min), the mice were in an upright and unnatural state by placing their forelimbs on a high glass hanging rod (about 5 cm from the ground). Then the time for the mice to maintain this state was measured, and the length of time was used to determine the freezing effect of the drug on the mice."}}}
{"smiles": "CN(C)C(=O)N[C@H]1CC[C@H](CCN2CCN3c4cccc5[nH]cc(c45)C[C@H]3C2)CC1", "note": "[(−)-I-10]", "values": [{"measurement": "inhibition of the improvement of athletic ability induced by MK801 (in words)", "setting": "[1]; 0.4/0.1/0.025 mg/kg", "value": "significantly inhibit"}, {"measurement": "45 minutes moving distance", "setting": "[1]; MK801 (0.2 mg/kg) + 0.00625 mg/kg intraperitoneal", "value": 11626, "unit": "cm"}, {"measurement": "45 minutes moving distance", "setting": "[1]; MK801 (0.2 mg/kg) + 0.025 mg/kg intraperitoneal", "value": 8643, "unit": "cm"}, {"measurement": "45 minutes moving distance", "setting": "[1]; MK801 (0.2 mg/kg) + 0.1 mg/kg intraperitoneal", "value": 3833, "unit": "cm"}, {"measurement": "45 minutes moving distance", "setting": "[1]; MK801 (0.2 mg/kg) + 0.4 mg/kg intraperitoneal", "value": 2644, "unit": "cm"}, {"measurement": "inhibition of restraint-induced depression-like behavior (in words)", "setting": "[2]; 0.4 mg/kg and 0.1 mg/kg, tail suspension and forced swimming", "value": "significantly inhibit"}, {"measurement": "Immobility time, tail suspension experiment", "setting": "[2]; 0.00625 mg/kg intraperitoneal", "value": 132.6, "unit": "s"}, {"measurement": "Immobility time, tail suspension experiment", "setting": "[2]; 0.025 mg/kg intraperitoneal", "value": 101.8, "unit": "s"}, {"measurement": "Immobility time, tail suspension experiment", "setting": "[2]; 0.1 mg/kg intraperitoneal", "value": 90.31, "unit": "s"}, {"measurement": "Immobility time, tail suspension experiment", "setting": "[2]; 0.4 mg/kg intraperitoneal", "value": 72.66, "unit": "s"}, {"measurement": "Immobility time, forced swimming experiment", "setting": "[3]; 0.00625 mg/kg intraperitoneal", "value": 76.09, "unit": "s"}, {"measurement": "Immobility time, forced swimming experiment", "setting": "[3]; 0.025 mg/kg intraperitoneal", "value": 56.59, "unit": "s"}, {"measurement": "Immobility time, forced swimming experiment", "setting": "[3]; 0.1 mg/kg intraperitoneal", "value": 42.76, "unit": "s"}, {"measurement": "Immobility time, forced swimming experiment", "setting": "[3]; 0.4 mg/kg intraperitoneal", "value": 22.40, "unit": "s"}, {"measurement": "improvement of MK801-induced spatial recognition impairment (in words)", "setting": "[4]; 0.1 mg/kg", "value": "significantly improve"}, {"measurement": "improvement of MK801-induced memory impairment (in words)", "setting": "[4]; 0.1 mg/kg and 0.025 mg/kg", "value": "significantly improve"}, {"measurement": "Platform exploration time", "setting": "[4]; fifth day, 0.00625 mg/kg", "value": 97.94, "unit": "s"}, {"measurement": "Platform exploration time", "setting": "[4]; fifth day, 0.025 mg/kg", "value": 92.23, "unit": "s"}, {"measurement": "Platform exploration time", "setting": "[4]; fifth day, 0.1 mg/kg", "value": 62.86, "unit": "s"}, {"measurement": "Platform exploration time", "setting": "[4]; first day, 0.00625 mg/kg", "value": 173.0, "unit": "s"}, {"measurement": "Platform exploration time", "setting": "[4]; first day, 0.025 mg/kg", "value": 161.2, "unit": "s"}, {"measurement": "Platform exploration time", "setting": "[4]; first day, 0.1 mg/kg", "value": 146.2, "unit": "s"}, {"measurement": "Platform exploration time", "setting": "[4]; fourth day, 0.00625 mg/kg", "value": 87.77, "unit": "s"}, {"measurement": "Platform exploration time", "setting": "[4]; fourth day, 0.025 mg/kg", "value": 96.66, "unit": "s"}, {"measurement": "Platform exploration time", "setting": "[4]; fourth day, 0.1 mg/kg", "value": 68.62, "unit": "s"}, {"measurement": "Times of crossing platform area", "setting": "[4]; 0.00625 mg/kg", "value": 2.600}, {"measurement": "Times of crossing platform area", "setting": "[4]; 0.025 mg/kg", "value": 4.500}, {"measurement": "Times of crossing platform area", "setting": "[4]; 0.1 mg/kg", "value": 5.800}, {"measurement": "Platform exploration time", "setting": "[4]; second day, 0.00625 mg/kg", "value": 145.3, "unit": "s"}, {"measurement": "Platform exploration time", "setting": "[4]; second day, 0.025 mg/kg", "value": 154.0, "unit": "s"}, {"measurement": "Platform exploration time", "setting": "[4]; second day, 0.1 mg/kg", "value": 128.5, "unit": "s"}, {"measurement": "Platform exploration time", "setting": "[4]; third day, 0.00625 mg/kg", "value": 108.1, "unit": "s"}, {"measurement": "Platform exploration time", "setting": "[4]; third day, 0.025 mg/kg", "value": 96.66, "unit": "s"}, {"measurement": "Platform exploration time", "setting": "[4]; third day, 0.1 mg/kg", "value": 88.38, "unit": "s"}, {"measurement": "freezing induction effect on mice (in words)", "setting": "[5]", "value": "no freezing induction effect"}, {"measurement": "Freezing time", "setting": "[5]; 30 minutes after administration", "value": "2.194 ± 0.2524", "unit": "s"}, {"measurement": "Freezing time", "setting": "[5]; 60 minutes after administration", "value": "2.165 ± 0.3256", "unit": "s"}]}
